Source: patent US11453690B2, “Receptor inhibitor, pharmaceutical composition comprising same, and use thereof” (BEIJING TIDE PHARMACEUTICAL CO., LTD., priority 2018, dated 2022)

The compounds below were run against AT2 Receptor (AT2R) (Homo sapiens (Human), UniProt P50052) (assay: Measurement of inhibitory activity on AT2 receptor (Tag-lite HTRF, Tb-labeled AT2R cells, angiotensin receptor red agonist)). Conditions: 1 h room temperature.
Format: binding
Method: Measurement of Inhibitory Activity on AT1 Receptor ([…])/AT2 Receptor (AT2R)
Through the following steps, the inhibitory activity of the compound on AT1R/AT2R (IC50 value) was determined:
1) An appropriate amount of 1×TLB (Tag-lite Buffer) was prepared and well mixed for use.
2) The compound was diluted by 10 times with ddH2O or DMSO. The compound was then dilute to 4 times of the working concentration with 1×TLB and mixed well for use.
3) 8600 nM Tag-lite angiotensin receptor red agonist was diluted to 12 nM (4×Kd) with 1×TLB.
4) 5 ml 1×TLB was taken into a 15 ml centrifuge tube.
5) After thawing 1 tube of Tb-labeled AT1R/AT2R cells in a 37° C. water bath, the cells were quickly transferred to the 1×TLB in step 4), mixed gently, and centrifuged at 1200 g for 5 minutes at room temperature.
6) The supernatant was aspirated gently, and the cells were resuspended and mixed in 2.7 ml 1×TLB, and then placed at room temperature until use.
7) 10 μl cells were added to all test wells, and 5 μl 4× working solution of the compound from step 2) was added to the corresponding test wells. 5 μl 4× Tag-lite angiotensin receptor red agonist well diluted in step 3) was added to all test wells.
8) After leaving the reaction plate at room temperature for 1 h, data were measured and analyzed using Envision HTRF Reader, and the half inhibitory concentration (IC50) of the compound on AT1R/AT2R was calculated with the GraphPad Prism four-parameter equation.

AT2 Receptor (AT2R), sequence (P50052 whole entry): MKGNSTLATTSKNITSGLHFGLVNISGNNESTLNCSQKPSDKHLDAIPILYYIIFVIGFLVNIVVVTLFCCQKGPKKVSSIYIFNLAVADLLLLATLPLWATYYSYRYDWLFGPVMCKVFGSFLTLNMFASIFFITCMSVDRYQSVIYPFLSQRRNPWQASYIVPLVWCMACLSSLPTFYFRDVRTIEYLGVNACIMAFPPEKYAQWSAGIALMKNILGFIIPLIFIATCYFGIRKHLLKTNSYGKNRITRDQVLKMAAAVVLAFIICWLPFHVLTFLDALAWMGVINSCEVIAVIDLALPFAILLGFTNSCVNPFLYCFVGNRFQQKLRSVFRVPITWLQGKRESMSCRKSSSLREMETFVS

Compared with `CCN(Cc1ccccc1F)C(=O)N1[C@H]2CC[C@@H]1[C@@H](C(=O)O)N(C(=O)N(c1ccccc1)c1ccccc1)C2` [Compound C156, (1R,2S,5S)-3-(diphenylcarbamoyl)-8-(ethyl(2-fluorobenzyl)carbamoyl)-3,8-diazabicyclo [3.2.1]octane-2-carboxylic acid], `CN(C)[C@@H](Cc1ccccc1)C(=O)N1[C@H]2CC[C@@H]1[C@@H](C(=O)O)N(C(=O)N(c1ccccc1)c1ccccc1)C2` [Compound C269, (1R,2S,5S)-8-((S)-2-(dimethylamino)-3-phenylpropionyl)-3-(diphenylcarbamoyl)-3,8-diazabicyclo [3.2.1]octane-2-carboxylic acid] is 6.8-fold higher in IC50: 0.0101 µM for the first, 0.0682 µM for the second. The first is the more potent here.

First: C[C@@H](c1ccccc1)N(C)C(=O)N1[C@H]2CC[C@@H]1[C@@H](C(=O)O)N(C(=O)N(c1ccccc1)c1ccccc1)C2 [Compound C227, (1R,2S,5S)-3-(diphenylcarbamoyl)-8-(methyl ((S)-1-phenylethyl)carbamoyl)-3,8-diazabicyclo [3.2.1]octane-2-carboxylic acid]
Second: O=C(O)[C@@H]1[C@H]2CC[C@@H](CN1C(=O)C(c1ccccc1)c1ccccc1)N2C(=O)CCc1ccccc1 [Compound C222, (1R,2S,5S)-3-(2,2-diphenylacetyl)-8-(3-phenylpropionyl)-3,8-diazabicyclo [3.2.1]octane-2-carboxylic acid]
The IC50 of the first is 1.6-fold higher: 0.0183 µM for the first, 0.0117 µM for the second.

Going from `CN(Cc1ccc(C(F)(F)F)cc1)C(=O)N1[C@H]2CC[C@@H]1[C@@H](C(=O)O)N(C(=O)N(c1ccccc1)c1ccccc1)C2` [Compound C169] to `O=C(O)[C@@H]1[C@H]2CC[C@@H](CN1C(=O)N(c1ccccc1)c1ccccc1)N2C(=O)N(Cc1ccsc1)C1CC1` [Compound C196, (1R,2S,5S)-8-(cyclopropyl (thiophene-3-yl-methyl)carbamoyl)-3-(diphenylcarbamoyl)-3,8-diazabicyclo [3.2.1]octane-2-carboxylic acid], the IC50 falls from 0.00726 µM to 0.00163 µM (4.5-fold).

Compared with `CN(Cc1ccccc1F)C(=O)N1[C@H]2CC[C@@H]1[C@@H](C(=O)O)N(C(=O)N(c1ccccc1)c1ccccc1)C2` [Compound C114, (1R,2S,5S)-3-(diphenylcarbamoyl)-8-((2-fluorobenzyl) (methyl)carbamoyl)-3,8-diazabicyclo [3.2.1]octane-2-carboxylic acid], `O=C(O)[C@H]1[C@@H]2CC[C@H](CN1C(=O)C(c1ccccc1)c1ccccc1)N2C(=O)C(c1ccccc1)c1ccccc1` [Compound C4, (1S,2R,5R)-3,8-bis (2,2-diphenylacetyl)-3,8-diazabicyclo [3.2.1]octane-2-carboxylic acid] is 2.7-fold lower in IC50: 0.0264 µM for the first, 0.00982 µM for the second. The second is the more potent here.

Compared with “(1R,2S,5S)-3- (2,2-diphenylacetyl)- 8-(((2-fluorobenzyl) oxy)carbonyl)- 3,8-diazabicyclo [3.2.1]octane-2- carboxylic acid [Compound C35]”, `O=C(O)[C@@H]1[C@H]2CC[C@@H](CN1C(=O)N(c1ccccc1)c1ccccc1)N2C(=O)C1(c2ccccc2)CCCC1` [Compound C113, (1R,2S,5S)-3-(diphenylcarbamoyl)-8-(1-phenylcyclopentane-1-carbonyl)-3,8-diazabicyclo [3.2.1]octane-2-carboxylic acid] is 3-fold lower in IC50: 0.0366 µM for the first, 0.0121 µM for the second.

Going from `O=C(O)[C@@H]1[C@@H]2CC[C@@H](CC2Oc2ccc([N+](=O)[O-])cc2)N1C(=O)C(c1ccccc1)c1ccccc1` (stereo partly drawn) [Compound C290, (1S,3S,4S)-2-(2,2-diphenyl-acetyl)-5-(4-nitrophenoxy)-2-azabicyclo [2.2.2]octane-3-carboxylic acid] to `CCCc1ccc(CN(C)C(=O)N2[C@H]3CC[C@@H]2[C@@H](C(=O)O)N(C(=O)N(c2ccccc2)c2ccccc2)C3)cc1` [Compound C236, (1R,2S,5S)-3-(diphenylcarbamoyl)-8-(methyl(4-propylbenzyl)carbamoyl)-3,8-diazabicyclo[3.2.1]octane-2-carboxylic acid], the IC50 falls from 0.561 µM to 0.00613 µM (92-fold).

Going from `CN(Cc1ccc(Cl)nc1)C(=O)N1[C@H]2CC[C@@H]1[C@@H](C(=O)O)N(C(=O)N(c1ccccc1)c1ccccc1)C2` [Compound C255] to `O=C(O)[C@@H]1[C@H]2CC[C@@H](CN1C(=O)N(c1ccccc1)c1ccccc1)N2C(=O)N1CCC[C@H]1c1cc(F)ccc1F` [Compound C142, (1R,2S,5S)-8-((S)-2-(2,5-difluorophenyl)pyrrolidine-1-carbonyl)-3-(diphenylcarbamoyl)-3,8-diazabicyclo [3.2.1]octane-2-carboxylic acid], the IC50 rises from 0.0138 µM to 0.653 µM (47-fold). The first is the more potent here.

Compared with `CN(Cc1csc2ccccc12)C(=O)N1[C@H]2CC[C@@H]1[C@@H](C(=O)O)N(C(=O)C(c1ccccc1)c1ccccc1)C2` [Compound C279], `CCN(Cc1ccc(C)s1)C(=O)N1[C@H]2CC[C@@H]1[C@@H](C(=O)O)N(C(=O)C(c1ccccc1)c1ccccc1)C2` [Compound C278, (1R,2S,5S)-3-(2,2-diphenylacetyl)-8-(ethyl((5-methylthiophen-2-yl)methyl)carbamoyl)-3,8-diazabicyclo [3.2.1]octane-2-carboxylic acid] is 2.3-fold lower in IC50: 0.0242 µM for the first, 0.0106 µM for the second. The second is the more potent here.

Compared with `O=C(O)[C@@H]1[C@H]2CC[C@@H](CN1C(=O)Oc1ccccc1)N2C(=O)N(c1ccccc1)c1ccccc1` [Compound C69, (1R,2S,5S)-8-(diphenylcarbamoyl)-3-(phenoxycarbonyl)-3,8-diazabicyclo [3.2.1]octane-2-carboxylic acid], `CN(Cc1ccccc1)C(=O)N1[C@H]2CC[C@@H]1[C@@H](C(=O)O)N(C(=O)C(C)(c1ccccc1)c1ccccc1)C2` [Compound C173, (1R,2S,5S)-8-(benzyl(methyl)carbamoyl)-3-(2,2-diphenylpropionyl)-3,8-diazabicyclo [3.2.1]octane-2-carboxylic acid] is 31-fold lower in IC50: 0.17 µM for the first, 0.00557 µM for the second. The second is the more potent here.

Compared with `O=C(O)[C@@H]1[C@H]2CC[C@@H](CN1C(=O)N(c1ccccc1)c1ccccc1)N2C(=O)N(Cc1ccccc1)Cc1ccccc1` [Compound C133, (1R,2S,5S)-8-(dibenzylcarbamoyl)-3-(diphenylcarbamoyl)-3,8-diazabicyclo[3.2.1] octane-2-carboxylic acid], `O=C(NC1CC2CCC1C(C(=O)O)N2C(=O)C(c1ccccc1)c1ccccc1)c1ccccc1` (stereo in doubt) [Compound C286, (1S,3S,4R)-5-benzamido-2-(2,2-diphenylacetyl)-2-azabicyclo[2.2.2]octane-3-carboxylic acid] is 3.1-fold higher in IC50: 0.243 µM for the first, 0.76 µM for the second.

`CCN(Cc1csc2ccccc12)C(=O)N1[C@H]2CC[C@@H]1[C@@H](C(=O)O)N(C(=O)N(c1ccccc1)c1ccccc1)C2` [Compound C245, (1R,2S,5S)-8-((benzo[b]thiophene-3-ylmethyl) (ethyl)carbamoyl)-3-(diphenylcarbamoyl)-3,8-diazabicyclo [3.2.1]octane-2-carboxylic acid] and `CC(c1ccccc1)N(C)C(=O)N1[C@H]2CC[C@@H]1[C@@H](C(=O)O)N(C(=O)N(c1ccccc1)c1ccccc1)C2` (stereo partly drawn) [Compound C225, (1R,2S,5S)-3-(diphenylcarbamoyl)-8-(methyl (1-phenylethyl)carbamoyl)-3,8-diazabicyclo [3.2.1]octane-2-carboxylic acid] are within 1.5-fold of each other in IC50: 0.0105 µM for the first, 0.0117 µM for the second.

First: O=C(O)[C@@H]1[C@H]2CC[C@@H](CN1C(=O)N(c1ccccc1)c1ccccc1)N2C(=O)N1CCN(c2ccccc2)CC1 [Compound C132, (1R,2S,5S)-3-(diphenylcarbamoyl)-8-(4-phenylpiperazine-1-carbonyl)-3,8-diazabicyclo[3.2.1] octane-2-carboxylic acid]
Second: CN(Cc1ccncc1)C(=O)N1[C@H]2CC[C@@H]1[C@@H](C(=O)O)N(C(=O)N(c1ccccc1)c1ccccc1)C2 [Compound C125, (1R,2S,5S)-3-(diphenylcarbamoyl)-8-(methyl(pyridine-4-ylmethyl)carbamoyl)-3,8-diazabicyclo [3.2.1]octane-2-carboxylic acid]
The IC50 of the first is 25-fold higher: 0.481 µM for the first, 0.019 µM for the second.

Going from `O=C(O)[C@@H]1[C@H]2CC[C@@H](CN1C(=O)N(c1ccccc1)c1ccccc1)N2C(=O)N1CCCC1c1ccc(Cl)cc1` (stereo in doubt) [Compound C144, (1R,2S,5S)-8-((R)-2-(4-chlorphenyl)pyrrolidine-1-carbonyl)-3-(diphenylcarbamoyl)-3,8-diazabicyclo [3.2.1]octane-2-carboxylic acid] to `O=C(O)[C@@H]1[C@H]2CC[C@@H](CN1C(=O)N(c1ccccc1)c1ccccc1)N2C(=O)N(Cc1ccccc1)C1CC1` [Compound C153, (1R,2S,5S)-8-(benzyl (cyclopropyl)carbamoyl)-3-(diphenylcarbamoyl)-3,8-diazabicyclo [3.2.1]octane-2-carboxylic acid], the IC50 falls from 0.0216 µM to 0.00278 µM (7.8-fold). The second is the more potent here.

Compared with `O=C(O)[C@@H]1[C@@H]2CC[C@@H](CC2OCc2cccc(Cl)c2)N1C(=O)C(c1ccccc1)c1ccccc1` (stereo partly drawn) [Compound C291, (1S,3S,4S)-5-((3-chloro-benzyl)oxy)-2-(2,2-diphenylacetyl)-2-azabicyclo [2.2.2]octane-3-carboxylic acid], `CC(CC(=O)N1[C@H]2CC[C@@H]1[C@@H](C(=O)O)N(C(=O)N(c1ccccc1)c1ccccc1)C2)c1ccccc1` (stereo partly drawn) [Compound C224, (1R,2S,5S)-3-(diphenylcarbamoyl)-8-(3-phenylbutylyl)-3,8-diazabicyclo [3.2.1]octane-2-carboxylic acid] is 32-fold lower in IC50: 0.765 µM for the first, 0.0238 µM for the second.
